Species: Rattus norvegicus
Assay: DrugMatrix - Regimen: Daily Repeat
Format: toxicity, organism-based, Sprague-Dawley
Design: regimen Daily Repeat, gender Male, age 6-8 weeks
Conditions: in vivo, po, route oral GAVAGE, vehicle 100 % WATER
[1] = 70 mg/kg, 72 h, tissue Blood, dose level Low, time 3 day
[2] = 70 mg/kg, 72 h, tissue Plasma, dose level Low, time 3 day
[3] = 70 mg/kg, 120 h, tissue Blood, dose level Low, time 5 day
[4] = 70 mg/kg, 120 h, tissue Plasma, dose level Low, time 5 day
[5] = 700 mg/kg, 72 h, tissue Blood, dose level High, time 3 day
[6] = 700 mg/kg, 72 h, tissue Plasma, dose level High, time 3 day
[7] = 700 mg/kg, 120 h, tissue Blood, dose level High, time 5 day
[8] = 700 mg/kg, 120 h, tissue Plasma, dose level High, time 5 day

MANGANESE CHLORIDE ANHYDROUS
ABSOLUTE BASOPHIL [1]: 0 CELLS/uL | ABSOLUTE EOSINOPHIL [1]: 0 CELLS/uL | ABSOLUTE LYMPHOCYTE [1]: 8843.67 CELLS/uL | ABSOLUTE MONOCYTE [1]: 103.33 CELLS/uL | ABSOLUTE SEGMENTED NEUTROPHIL [1]: 819.67 CELLS/uL | BASOPHIL [1]: 0% | EOSINOPHIL [1]: 0% | ERYTHROCYTE COUNT [1]: 5.19 x10E6/uL | HEMATOCRIT [1]: 32.17% | HEMOGLOBIN [1]: 12.2 G/DL | LEUKOCYTE COUNT [1]: 9.77 x10E3/uL | LYMPHOCYTE [1]: 90% | MEAN CORPUSCULAR HEMOGLOBIN [1]: 23.5 pg | MEAN CORPUSCULAR HEMOGLOBIN CONCENTRATION [1]: 37.93 G/DL | MEAN CORPUSCULAR VOLUME [1]: 61.97 fL | MONOCYTE [1]: 0.67% | NUCLEATED RED BLOOD CELLS [1]: 0 /100WBC | PLATELET COUNT [1]: 1240.67 x10E3/uL | ALANINE AMINOTRANSFERASE [2]: 53.33 u/L | ALKALINE PHOSPHATASE [2]: 482 u/L | ASPARTATE AMINOTRANSFERASE [2]: 91.67 u/L | BLOOD UREA NITROGEN [2]: 13.33 mg/dL | CARBON DIOXIDE [2]: 35.33 mmol/L | CHLORIDE [2]: 99 MEQ/L | CHOLESTEROL [2]: 84 mg/dL | CREATINE PHOSPHOKINASE [2]: 442.33 u/L | CREATININE [2]: 0.22 mg/dL | GLUCOSE [2]: 139.33 mg/dL | LACTATE DEHYDROGENASE [2]: 131 u/L | PHOSPHORUS [2]: 12.07 mg/dL | POTASSIUM [2]: 6.21 MEQ/L | TOTAL BILIRUBIN [2]: 0.17 mg/dL | TOTAL PROTEIN [2]: 6.27 G/DL | URIC ACID [2]: 0.57 mg/dL | ABSOLUTE BASOPHIL [3]: 0 CELLS/uL | ABSOLUTE EOSINOPHIL [3]: 184.33 CELLS/uL | ABSOLUTE MONOCYTE [3]: 189.67 CELLS/uL | ABSOLUTE SEGMENTED NEUTROPHIL [3]: 2003 CELLS/uL | BASOPHIL [3]: 0% | EOSINOPHIL [3]: 1% | ERYTHROCYTE COUNT [3]: 4.88 x10E6/uL | HEMATOCRIT [3]: 30.07% | HEMOGLOBIN [3]: 11.73 G/DL | LEUKOCYTE COUNT [3]: 15.07 x10E3/uL | LYMPHOCYTE [3]: 84% | MEAN CORPUSCULAR HEMOGLOBIN [3]: 24.27 pg | MEAN CORPUSCULAR HEMOGLOBIN CONCENTRATION [3]: 39.03 G/DL | NEUTROPHIL [3]: 13.67% | NUCLEATED RED BLOOD CELLS [3]: 0.33 /100WBC | PLATELET COUNT [3]: 1245 x10E3/uL | ALANINE AMINOTRANSFERASE [4]: 35.67 u/L | ALBUMIN [4]: 3.9 G/DL | ALKALINE PHOSPHATASE [4]: 338 u/L | ASPARTATE AMINOTRANSFERASE [4]: 64.33 u/L | BLOOD UREA NITROGEN [4]: 13.67 mg/dL | CARBON DIOXIDE [4]: 31.67 mmol/L | CHOLESTEROL [4]: 69.33 mg/dL | CREATINE PHOSPHOKINASE [4]: 218 u/L | CREATININE [4]: 0.22 mg/dL | GLUCOSE [4]: 158.33 mg/dL | LACTATE DEHYDROGENASE [4]: 105.67 u/L | PHOSPHORUS [4]: 13.3 mg/dL | POTASSIUM [4]: 6.22 MEQ/L | TOTAL BILIRUBIN [4]: 0.17 mg/dL | TOTAL PROTEIN [4]: 5.83 G/DL | ABSOLUTE BASOPHIL [5]: 0 CELLS/uL | ABSOLUTE EOSINOPHIL [5]: 33.67 CELLS/uL | ABSOLUTE LYMPHOCYTE [5]: 10434.33 CELLS/uL | ABSOLUTE MONOCYTE [5]: 178.67 CELLS/uL | ABSOLUTE SEGMENTED NEUTROPHIL [5]: 1653.33 CELLS/uL | BASOPHIL [5]: 0% | EOSINOPHIL [5]: 0.33% | ERYTHROCYTE COUNT [5]: 4.97 x10E6/uL | HEMATOCRIT [5]: 30.43% | HEMOGLOBIN [5]: 11.8 G/DL | LEUKOCYTE COUNT [5]: 12.3 x10E3/uL | LYMPHOCYTE [5]: 85.67% | MEAN CORPUSCULAR HEMOGLOBIN [5]: 23.77 pg | MEAN CORPUSCULAR HEMOGLOBIN CONCENTRATION [5]: 38.77 G/DL | NEUTROPHIL [5]: 12.67% | NUCLEATED RED BLOOD CELLS [5]: 0 /100WBC | PLATELET COUNT [5]: 1357.33 x10E3/uL | ALANINE AMINOTRANSFERASE [6]: 45 u/L | ALBUMIN [6]: 3.77 G/DL | ALKALINE PHOSPHATASE [6]: 329.67 u/L | ASPARTATE AMINOTRANSFERASE [6]: 86.33 u/L | BLOOD UREA NITROGEN [6]: 13.67 mg/dL | CARBON DIOXIDE [6]: 36.33 mmol/L | CHLORIDE [6]: 99 MEQ/L | CHOLESTEROL [6]: 63.33 mg/dL | CREATINE PHOSPHOKINASE [6]: 347.67 u/L | CREATININE [6]: 0.26 mg/dL | GLUCOSE [6]: 139.67 mg/dL | LACTATE DEHYDROGENASE [6]: 119 u/L | PHOSPHORUS [6]: 11.6 mg/dL | POTASSIUM [6]: 5.86 MEQ/L | SODIUM [6]: 145.53 MEQ/L | TOTAL BILIRUBIN [6]: 0.17 mg/dL | TOTAL PROTEIN [6]: 6.23 G/DL | URIC ACID [6]: 0.47 mg/dL | ABSOLUTE BASOPHIL [7]: 0 CELLS/uL | ABSOLUTE EOSINOPHIL [7]: 0 CELLS/uL | ABSOLUTE LYMPHOCYTE [7]: 14144.67 CELLS/uL | ABSOLUTE MONOCYTE [7]: 257.33 CELLS/uL | ABSOLUTE SEGMENTED NEUTROPHIL [7]: 3531.33 CELLS/uL | BASOPHIL [7]: 0% | EOSINOPHIL [7]: 0% | ERYTHROCYTE COUNT [7]: 5.15 x10E6/uL | HEMATOCRIT [7]: 30.93% | HEMOGLOBIN [7]: 11.9 G/DL | LEUKOCYTE COUNT [7]: 17.93 x10E3/uL | LYMPHOCYTE [7]: 79.67% | MEAN CORPUSCULAR HEMOGLOBIN [7]: 23.1 pg | MEAN CORPUSCULAR VOLUME [7]: 60.03 fL | NEUTROPHIL [7]: 19% | NUCLEATED RED BLOOD CELLS [7]: 0 /100WBC | PLATELET COUNT [7]: 1336.67 x10E3/uL | ALANINE AMINOTRANSFERASE [8]: 40 u/L | ALKALINE PHOSPHATASE [8]: 346.33 u/L | ASPARTATE AMINOTRANSFERASE [8]: 68.67 u/L | BLOOD UREA NITROGEN [8]: 12.67 mg/dL | CARBON DIOXIDE [8]: 33.67 mmol/L | CHOLESTEROL [8]: 76.33 mg/dL | CREATINE PHOSPHOKINASE [8]: 209.67 u/L | CREATININE [8]: 0.31 mg/dL | GLUCOSE [8]: 139.67 mg/dL | LACTATE DEHYDROGENASE [8]: 88.67 u/L | POTASSIUM [8]: 5.7 MEQ/L | TOTAL BILIRUBIN [8]: 0.17 mg/dL | TOTAL PROTEIN [8]: 5.97 G/DL | URIC ACID [8]: 0.4 mg/dL
